Experimental findings from ChEMBL document CHEMBL1201862, “PubChem BioAssay data set” (2004) are described below.

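Growth conditions: 96-well plates. Treatment: test compound, 48 hours, 5 concentrations. Analysis: linear interpolation between bracketing concentrations; unreached endpoints set to highest concentration. At the GI50, growth is halved.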 Activity calls are given as the source filed them. No stated cut-off is given here; in the data, active = GI50 up to about 1.1 µM and inactive = higher.

Test systems include MOLT-4; CCRF-CEM; HCT-15; SW-620; SK-MEL-28; NCI-H23; KM12; SNB-19; MCF7; EKVX; K562; COLO 205; HCT-116; PC-3; TK-10; MDA-MB-435; U-251; MDA-N; A549.
What all share (assay): growth of human tumour cells (NCI), 48 h

On to `O=C(/N=C1/NCC(CN2CCN(c3ccccc3)CC2)O1)Nc1ccccc1` (configuration not stated), for which the GI50 was 93.1 µM (inactive) with MOLT-4; > 100 µM (inactive) in the experiment with CCRF-CEM; over 100 µM in the experiment with HCT-15; > 100 µM (inactive) with SW-620; > 100 µM (inactive) in the experiment with SK-MEL-28; > 100 µM (inactive) in the experiment with NCI-H23. The GI50 in the experiment on KM12, with SNB-19, with MCF7, in the experiment with EKVX, in the experiment with K562 and with COLO 205 was > 100 µM (inactive) each time. The GI50 with HCT-116, with PC-3, with TK-10, in the experiment on MDA-MB-435, in the experiment with U-251 and with MDA-N was > 100 µM (inactive) in each case. Also, the GI50 in the experiment with A549 was > 100 µM (inactive).
For `O=C(O)c1ccc(Nc2nc3cc(C(F)(F)F)ccc3nc2-c2ccccc2)cc1`, the GI50 in the experiment with MOLT-4 was 24.9 µM (inactive); with CCRF-CEM it was 22.3 µM (inactive); in the experiment with HCT-15 it was 12.9 µM; in the experiment with SW-620 it was 17.2 µM (inactive); with SK-MEL-28, 28.6 µM (inactive); with NCI-H23, 19 µM (inactive). The GI50 with KM12 was 13.2 µM (inactive); in the experiment with SNB-19 it was 30.6 µM (inactive); with MCF7 it was > 10 µM (inactive); in the experiment on EKVX, 11.3 µM (inactive); with K562 it was 16.8 µM (inactive); in the experiment on COLO 205, 17.5 µM (inactive). Moreover, the GI50 in the experiment with HCT-116 was 22.8 µM (inactive); with PC-3, 18.5 µM (inactive); in the experiment on TK-10, 15.2 µM (inactive); in the experiment on MDA-MB-435 it was 31.6 µM (inactive); in the experiment on U-251, 14.9 µM (inactive); in the experiment on MDA-N, 30.6 µM (inactive). The GI50 with A549 was 16.3 µM (inactive).
Regarding `COC(=O)Cc1c(C(=O)CC(C)(C)n2cnc(CCN3C(=O)CCC3=O)c2)[nH]c2ccccc12`, the GI50 is > 100 µM (inactive) in the experiment with MOLT-4; > 100 µM (inactive) in the experiment with CCRF-CEM; over 100 µM with HCT-15; > 100 µM (inactive) in the experiment with SW-620; > 100 µM (inactive) in the experiment on SK-MEL-28; > 100 µM (inactive) in the experiment with NCI-H23. Further, the GI50 in the experiment with KM12, in the experiment with SNB-19, in the experiment on MCF7, with EKVX, with K562 and with COLO 205 was > 100 µM (inactive) throughout. Further, the GI50 with HCT-116, in the experiment with PC-3, in the experiment with TK-10, with MDA-MB-435, in the experiment on U-251 and with MDA-N was > 100 µM (inactive) throughout. The GI50 with A549 was > 100 µM (inactive).
With `COc1ccc2c(c1)c(=O)c1c(NCCNCCO)ccc3c(=O)n(CCN(C)C)c(=O)n2c31`, the GI50 with MOLT-4 was < 0.01 µM (active); with CCRF-CEM, 0.104 µM (active); in the experiment with HCT-15 it was 0.23 µM; in the experiment on SW-620, < 0.0236 µM (active); with SK-MEL-28, 0.475 µM (active); in the experiment with NCI-H23, 0.0637 µM (active). Moreover, the GI50 in the experiment with KM12 was 0.142 µM (active); in the experiment on SNB-19, 0.07 µM (active); in the experiment with MCF7, < 0.0276 µM (active); in the experiment on EKVX it was 0.0889 µM (active); in the experiment on K562 it was 0.0333 µM (active); in the experiment on COLO 205 it was 0.0467 µM (active). The GI50 in the experiment on HCT-116 was < 0.0186 µM (active); in the experiment on PC-3, 0.0836 µM (active); in the experiment on TK-10, 0.187 µM (active); with MDA-MB-435 it was 0.103 µM (active); with U-251, < 0.0374 µM (active); in the experiment with MDA-N, 0.112 µM (active). The GI50 with A549 was < 0.0255 µM (active).
Take `CNc1ncnc2c1cnn2Cc1cn(CCCCO)nn1`: the GI50 was > 100 µM (inactive) in the experiment with MOLT-4; > 100 µM (inactive) with CCRF-CEM; over 100 µM with HCT-15; > 100 µM (inactive) in the experiment with SW-620; > 100 µM (inactive) with SK-MEL-28; > 100 µM (inactive) in the experiment with NCI-H23. Also, the GI50 in the experiment with KM12, in the experiment with SNB-19, in the experiment with MCF7, in the experiment with EKVX, with K562 and in the experiment on COLO 205 was > 100 µM (inactive) in each case. Besides, the GI50 in the experiment with HCT-116, in the experiment on PC-3, with TK-10, with MDA-MB-435, in the experiment with U-251 and in the experiment with MDA-N was > 100 µM (inactive) in each case. Besides, in the experiment with A549, the GI50 is > 100 µM (inactive).
With `Nc1nc(Nc2ccccc2)sc1C(=O)c1cccs1`, the GI50 in the experiment on MOLT-4 was 6.75 µM (inactive); in the experiment with CCRF-CEM it was 2.81 µM (inactive); in the experiment with HCT-15 it was 10.8 µM; in the experiment on SW-620, 11.6 µM (inactive); with SK-MEL-28, 25.4 µM (inactive); with NCI-H23, 16.2 µM (inactive). In addition, the GI50 is 4.19 µM (inactive) in the experiment with KM12; 16.6 µM (inactive) in the experiment on SNB-19; 8.13 µM (inactive) with MCF7; 13.6 µM (inactive) in the experiment on EKVX; 9.86 µM (inactive) in the experiment on K562; 7.06 µM (inactive) in the experiment on COLO 205. Moreover, the GI50 with HCT-116 was 4.06 µM (inactive); in the experiment with PC-3, 15.9 µM (inactive); with TK-10, 16.4 µM (inactive); in the experiment with MDA-MB-435, 15 µM (inactive); in the experiment with U-251 it was 15.3 µM (inactive); with MDA-N, 17.1 µM (inactive). Moreover, the GI50 in the experiment on A549 is 14.2 µM (inactive).
As for `COc1ccc(/C=N/n2c(=O)[nH]c3ccccc3c2=O)cc1`, the GI50 in the experiment with MOLT-4 is > 100 µM (inactive); in the experiment with CCRF-CEM, > 100 µM (inactive); in the experiment on HCT-15, over 100 µM; with SW-620 it was > 100 µM (inactive); with SK-MEL-28 it was > 100 µM (inactive); in the experiment with NCI-H23, > 100 µM (inactive). Further, the GI50 was > 100 µM (inactive) in the experiment on KM12; > 100 µM (inactive) with SNB-19; > 100 µM (inactive) with MCF7; 59.8 µM (inactive) in the experiment on EKVX; > 100 µM (inactive) in the experiment with K562; > 100 µM (inactive) with COLO 205. Also, the GI50 in the experiment on HCT-116, in the experiment on PC-3, in the experiment with TK-10, in the experiment with MDA-MB-435, in the experiment with U-251 and with MDA-N was > 100 µM (inactive) in each case. In the experiment with A549, the GI50 is > 100 µM (inactive).
With `C[C@@H](CC(=O)OCc1ccccc1)OC1OC(COC(=O)C(C)(C)C)C(OC(=O)C(C)(C)C)C(OC(=O)C(C)(C)C)C1OC(=O)C(C)(C)C` (some centres not stated), the GI50 is 94.4 µM (inactive) in the experiment on MOLT-4; > 100 µM (inactive) in the experiment on CCRF-CEM; over 100 µM with HCT-15; > 100 µM (inactive) with SW-620; > 100 µM (inactive) with SK-MEL-28; > 100 µM (inactive) with NCI-H23. In addition, the GI50 with KM12, in the experiment on SNB-19, with MCF7, in the experiment on EKVX, in the experiment with K562 and in the experiment on COLO 205 was > 100 µM (inactive) each time. Moreover, the GI50 in the experiment with HCT-116 was > 100 µM (inactive); in the experiment with PC-3, > 100 µM (inactive); in the experiment with TK-10 it was > 100 µM (inactive); in the experiment with MDA-MB-435, > 100 µM (inactive); in the experiment on U-251 it was > 100 µM (inactive); in the experiment with MDA-N, 36 µM (inactive). Besides, the GI50 in the experiment with A549 is > 100 µM (inactive).
